These are literature values, as cited in patent US20230203322A1, “NON-ABLATIVE MULTI-LAYER COATINGS FOR BOAT PROPELLERS THAT PREVENT WATER-DERIVED DAMAGE, CORROSION, AND DETERIORATION FROM BIOLOGICAL CHEMICAL PROCESSES” (priority 2021, published 2023).

One data set concerns barnacles. The conditions noted are these: copper release.
Data set [1] deals with biofouling animal organisms.

Take `[Cu]` [copper]: in the data set on barnacles, the “minimal effective rate known to be effective for eradicating barnacles” value is 4 × 10^-6 micrograms per cm^2 per day.
Turning to `[O]=[Zn]` [zinc oxide], in data set [1] (by itself), the “effect on biofouling animal organisms” value is “only a weak effect”. Also, the “synergistic enhancement of the biofouling anti-proliferating effect of copper and its alloys and salts” value in data set [1] (used in combination with the copper containing-substance) is listed as “up to 200 times”.
